Measurements taken from PubChem BioAssay AID1508603 (National Center for Advancing Translational Sciences (NCATS), 2020).

Tested on: human liver cytosol stability, half-life
Experiment: NCATS Human Liver Cytosol Stability Profiling
Details: higher = more stable
Description: Assay submitter (PI): Pranav Shah Ph.D.
NIH Center for Advancing Translational Sciences
Over the last few decades, chemists have become skilled at designing compounds that avoid cytochrome P (CYP) 450 mediated metabolism. Typical screening assays are performed in liver microsomal fractions and it is possible to overlook the contribution of cytosolic enzymes until much later in the drug discovery process. Few data exist on cytosolic enzyme-mediated metabolism and no reliable tools are available to chemists to help design away from such liabilities. In this study, we screened 1450 compounds for liver cytosol-mediated metabolic stability and extracted transformation rules that might help medicinal chemists in optimizing compounds with these liabilities. […] Matched molecular pairs analysis was performed in conjunction with qualitative-structure activity relationship modeling to identify chemical structure transformations affecting cytosolic stability. The transformation rules were prospectively validated on the test set. In addition, selected rules were validated on a diverse chemical library and the resulting pairs were experimentally tested to confirm whether the identified transformations could be generalized. The validation results, comprising nearly 250 library compounds and corresponding half-life data, are made publicly available. The datasets were also used to generate in silico classification models, based on different molecular descriptors and machine learning methods, to predict cytosol-mediated liabilities. To the best of our knowledge, this is the first systematic in silico effort to address cytosolic enzyme-mediated liabilities (Shah 2020).
Shah, P., Siramshetty, V.B., Zakharov, A.V. et al. Predicting liver cytosol stability of small molecules. J Cheminform 12, 21 (2020). https://doi.org/10.1186/s13321-020-00426-7
Compounds are classified as unstable (t 1/2 < 30 min) or stable (t 1/2 > 30 min).
1. Shah, P. et al. An Automated High-Throughput Metabolic Stability Assay Using an Integrated High-Resolution Accurate Mass Method and Automated Data Analysis Software. Drug Metab Dispos 44, 1653-1661 (2016). PMID 27417180

| half-life | Structure (SMILES) |
| --- | --- |
| > 2 h | N#Cc1cccc(CN2CC[C@H](c3nnc(-c4ccco4)o3)C2)c1 |
| > 2 h | CN1CCOC2(CCN(Cc3cccc(C#N)c3)CC2)C1=O |
| 0.308 h | Cc1ccsc1-c1[nH]nc2ncc(-c3ccccc3)nc12 |
| 1.38 h | O=C(c1ccsc1)N1CCC(Oc2cccc(F)c2)C1 (stereo not drawn) |
| 1.55 h | N#Cc1ccc(CN2CCC(N3CCNC3=O)CC2)cc1 |
| > 2 h | COc1ccc(CN2CCC(N3Cc4cccn4C3=O)CC2)cc1 |
| 0.44 h | Fc1cccc(-c2noc(-c3nc(-c4ccncc4)no3)n2)c1 |
| 0.29 h | O=C(c1cccs1)N1CCC(Oc2cccc(F)c2)C1 (stereo not drawn) |
| 1.37 h | COc1ccc(CN2CC(N3CCc4ccccc43)C2)cc1 |
| > 2 h | N#Cc1ccc(CN2CCC3(CC2)CC(=O)c2ccccc2O3)cc1 |
| > 2 h | O=C(c1cccnc1)N1CCC(Oc2cccc(F)c2)C1 (stereo not drawn) |
| 0.36 h | COc1ccc(CN2CC(Oc3ccc(F)c(C)c3)C2)cc1 |
| > 2 h | N#Cc1cccc(-c2c(C(=O)N3CCOCC3)nc3sccn23)c1 |
| 1.72 h | N#Cc1cccc(-c2c(C(=O)N3CCCCC3)nc3sccn23)c1 |
| > 2 h | CN1CCC(OC2CCN(C(=O)c3cccc(F)c3)CC2)CC1 |
| > 2 h | O=C(N1CCN(S(=O)(=O)c2cccc(F)c2)CC1)N1CC2CC(C1)[C@H]1CCCC(=O)N1C2 (stereo partly drawn) |
| > 2 h | O=c1cc(N2CCOCC2)oc2c(-c3cccc(F)c3)nccc12 |
| 0.593 h | Cc1cc2cc(-c3c(C)noc3C)nc(Nc3ccccc3)c2o1 |
| > 2 h | CC1(c2ccccc2)N(Cc2ccccc2)C(=O)OC12CCN(Cc1ccc(C(=O)O)cc1)CC2 (stereo not drawn) |
| > 2 h | COc1cccc(CN2CC[C@H](c3nc4ccccc4[nH]3)C2)c1 |
| > 2 h | CN1CCC(OC2CCN(C(=O)c3ccccc3)CC2)CC1 |

| half-life | Structure (SMILES) |
| --- | --- |
| > 2 h | CN1c2cc(C(=O)Nc3ccc(S(N)(=O)=O)cc3)ccc2C(=O)N2CCCCC21 (stereo not drawn) |
| 1.34 h | N#Cc1ccccc1CN1CCC2(CC1)CC(O)CCO2 (stereo not drawn) |
| 1.5 h | Cc1noc(C)c1-c1cc(-c2cccc(F)c2)cn2cncc12 |
| 1.58 h | N#Cc1cccc(CN2CCOC[C@H]2c2ncc(-c3ccc(F)cc3)[nH]2)c1 |
| 1.32 h | COC1CCC12CCN(C(=O)c1ccc(C#N)cc1)CC2 (stereo not drawn) |
| 1.05 h | N#Cc1ccc(CN2CC(Oc3ccc(F)cc3F)C2)cc1 |
| 0.29 h | Cc1ccc(NC(=O)c2nc3sccn3c2-c2cccc(C#N)c2)cc1 |
| > 2 h | CC1(c2ccccc2)N(Cc2ccccc2)C(=O)OC12CCN(Cc1cccc(C#N)c1)CC2 (stereo not drawn) |
| > 2 h | Cc1ccccc1-c1[nH]nc2ncc(-c3ccccc3C#N)nc12 |
| 1.61 h | N#Cc1ccc(CN2CC(N3CCc4ccccc43)C2)cc1 |
| > 2 h | N#Cc1cccc(CN2CC[C@H](c3nc4ccccc4[nH]3)C2)c1 |
| 1.86 h | COc1cccc(-c2cn3c(n2)N(C(=O)c2ccoc2)CCC3)c1 |
| 0.867 h | O=C(Nc1cnc(-c2ccccc2)nc1)c1cccc(F)c1 |
| > 2 h | N#Cc1ccc(C(=O)N2CCCOCCNC(=O)CC2)cc1 |
| 0.127 h | CN(Cc1ccccc1)C1CCOc2ccccc21 (stereo not drawn) |
| > 2 h | CN1CCN(C(=O)c2ccc3nccn3c2)CC1 |
| 1.57 h | O=c1c2nc(Nc3cccc(F)c3)ccc2ncn1-c1ccccc1 |
| 1.69 h | CCOc1cc(=O)n2c(c1C(=O)Nc1ccc(C#N)cc1)CCCC2 |
| > 2 h | CCN1CCN(C(=O)c2cc(-c3ccccc3OC)c3nncn3n2)CC1 |
| > 2 h | O=C(O)c1ccc2c(c1)n(Cc1cccc(F)c1)c(=O)c1ccnn12 |
| 1.18 h | O=C(c1ccoc1)N1CCC(Oc2cccc(F)c2)C1 (stereo not drawn) |

| Structure (SMILES) | half-life |
| --- | --- |
| CN1CCN(C(=O)Cc2cccn2-c2ccc(F)cc2)CC1 | > 2 h |
